Consider 30 compounds from patent US9133204B2, “5-membered heterocyclic amides and related compounds” (H. Lundbeck A/S, priority 2007, dated 2015).

The IC50 is the concentration that gives 50% inhibition.

The target of this test is T1, P2X7 receptor (Homo sapiens, UniProt Q99572).
T1 construct: host or cells: SH-SY5Y
T1 sequence (Q99572 1-595): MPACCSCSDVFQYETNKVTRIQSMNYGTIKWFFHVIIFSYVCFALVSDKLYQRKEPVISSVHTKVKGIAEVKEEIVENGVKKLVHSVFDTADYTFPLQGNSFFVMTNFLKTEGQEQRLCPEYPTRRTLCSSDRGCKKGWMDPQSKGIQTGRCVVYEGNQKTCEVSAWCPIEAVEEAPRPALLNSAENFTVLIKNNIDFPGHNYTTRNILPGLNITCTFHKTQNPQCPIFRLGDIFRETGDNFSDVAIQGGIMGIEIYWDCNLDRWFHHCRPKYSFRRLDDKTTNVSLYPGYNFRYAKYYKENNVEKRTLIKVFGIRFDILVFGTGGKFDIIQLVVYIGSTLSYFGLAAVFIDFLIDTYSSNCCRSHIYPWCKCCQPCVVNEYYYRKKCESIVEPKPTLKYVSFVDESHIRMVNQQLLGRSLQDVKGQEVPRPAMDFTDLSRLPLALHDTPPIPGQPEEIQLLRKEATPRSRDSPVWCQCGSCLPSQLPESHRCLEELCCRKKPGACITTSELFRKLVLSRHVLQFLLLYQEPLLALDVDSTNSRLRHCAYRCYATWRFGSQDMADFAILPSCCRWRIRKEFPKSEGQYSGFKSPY
Description: High throughput P2X7 calcium mobilization assay (Example 4A). The following applies: SH-SY5Y cells; 50% decrease in fluorescence response of cells exposed to 80 μM BzATP; Table I. The test is classed as cell-based. The method in brief: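 Calcium mobilization read by FLIPR as peak fluorescence over 2 min after adding BzATP to a final 80 μM (about EC50). Beforehand, Fluo-4 AM-loaded SH-SY5Y cells sat 1 h at room temperature with compound at 1–2500 nM in pH 7.4 sucrose/HEPES buffer; signal minus no-agonist wells.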
In general terms: Calcium flux is commonly read through the fluorescence of an indicator in the cells.
With `Cc1cnc(-n2cc(C(=O)NCC(CC(C)C)c3ccc(Cl)cc3)c(C)n2)nc1N` (stereo not drawn) [Compound 109, 1-(4-amino-5-methylpyrimidin-2-yl)-N-[2-(4-chlorophenyl)-4-methylpentyl]-3-methyl-1H-pyrazole-4-carboxamide], the half-inhibitory concentration (IC50) was no more than 2 µM.
With `Cc1nn(-c2ncc(F)c(N)n2)cc1C(=O)NCC12CC3CC(CC(C3)C1)C2` [Compound 110, N-(adamantan-1-ylmethyl)-1-(4-amino-5-fluoropyrimidin-2-yl)-3-methyl-1H-pyrazole-4-carboxamide], the IC50 was no more than 2 µM.
Consider `Cc1nn(-c2nccc(C(F)(F)F)n2)cc1C(=O)NCC12CC3CC(CC(C3)C1)C2` [Compound 111, N-(adamantan-1-ylmethyl)-3-methyl-1-[4-(trifluoromethyl)pyrimidin-2-yl]-1H-pyrazole-4-carboxamide], for which the half-inhibitory concentration (IC50) is no more than 2 µM.
The same measure for `Cc1nn(-c2ncc(F)cn2)cc1C(=O)NCC12CC3CC(CC(C3)C1)C2` [Compound 112, N-(adamantan-1-ylmethyl)-1-(5-fluoropyrimidin-2-yl)-3-methyl-1H-pyrazole-4-carboxamide]: no more than 2 µM; for `Cc1nn(-c2ncc(F)c(N)n2)cc1C(=O)NCC(CC(C)C)c1ccc(Cl)cc1` (stereo not drawn) [Compound 113, 1-(4-amino-5-fluoropyrimidin-2-yl)-N-[2-(4-chlorophenyl)-4-methylpentyl]-3-methyl-1H-pyrazole-4-carboxamide]: no more than 2 µM.
Consider `Cc1nn(-c2ncc(F)cn2)cc1C(=O)NCC(CC(C)C)c1ccc(Cl)cc1` (stereo not drawn) [Compound 114, N-[2-(4-chlorophenyl)-4-methylpentyl]-1-(5-fluoropyrimidin-2-yl)-3-methyl-1H-pyrazole-4-carboxamide], for which the IC50 is no more than 2 µM.
With `Cc1cnc(-n2cc(C(=O)NCC(CC(C)C)c3ccc(C(F)(F)F)cc3)c(C)n2)nc1N` (stereo not drawn) [Compound 115, 1-(4-amino-5-methylpyrimidin-2-yl)-3-methyl-N-{4-methyl-2-[4-(trifluoromethyl)phenyl]pentyl}-1H-pyrazole-4-carboxamide] the figure was no more than 2 µM; with `Cc1nn(-c2ncc(F)c(N)n2)cc1C(=O)NCC(CC(C)C)c1ccc(C(F)(F)F)cc1` (stereo not drawn) [Compound 116, 1-(4-amino-5-fluoropyrimidin-2-yl)-3-methyl-N-{4-methyl-2-[4-(trifluoromethyl)phenyl]pentyl}-1H-pyrazole-4-carboxamide], no more than 2 µM.
Take `Cc1nn(-c2ncc(F)cn2)cc1C(=O)NCC(CC(C)C)c1ccc(C(F)(F)F)cc1` (stereo not drawn) [Compound 117, 1-(5-fluoropyrimidin-2-yl)-3-methyl-N-{4-methyl-2-[4-(trifluoromethyl)phenyl]pentyl}-1H-pyrazole-4-carboxamide]: the IC50 is no more than 2 µM.
With `O=C(NCC12CC3CC(CC(C3)C1)C2)c1cn(-c2ncc(F)cn2)nc1C(F)(F)F` [Compound 118, N-(adamantan-1-ylmethyl)-1-(5-fluoropyrimidin-2-yl)-3-(trifluoromethyl)-1H-pyrazole-4-carboxamide] the figure was no more than 2 µM.
The same measure for `Cc1cnc(-n2cc(C(=O)NCC34CC5CC(CC(C5)C3)C4)c(C)n2)nc1-c1ccncc1` [Compound 119, N-(adamantan-1-ylmethyl)-3-methyl-1-(5-methyl-4-pyridin-4-ylpyrimidin-2-yl)-1H-pyrazole-4-carboxamide]: no more than 2 µM; for `Cc1cnc(-n2cc(C(=O)NCC34CC5CC(CC(C5)C3)C4)c(C)n2)nc1-c1cncnc1` [Compound 120, N-(adamantan-1-ylmethyl)-3-methyl-1-(5-methyl-4,5′ bipyrimidin-2-yl)-1H-pyrazole-4-carboxamide]: no more than 2 µM; for `Cc1cnc(-n2cc(C(=O)NCC34CC5CC(CC(C5)C3)C4)c(C)n2)nc1-c1ccccn1` [Compound 121, N-(adamantan-1-ylmethyl)-3-methyl-1-(5-methyl-4-pyridin-2-ylpyrimidin-2-yl)-1H-pyrazole-4-carboxamide]: no more than 2 µM.
Take `Cc1cnc(-n2cc(C(=O)NCC34CC5CC(CC(C5)C3)C4)c(C)n2)nc1-c1ncccn1` [Compound 122, N-(adamantan-1-ylmethyl)-3-methyl-1-(5′-methyl-2,4′-bipyrimidin-2′-yl)-1H-pyrazole-4-carboxamide]: the IC50 was no more than 2 µM.
As for `Cc1cnc(-n2cc(C(=O)NCC34CC5CC(CC(C5)C3)C4)c(C(F)(F)F)n2)nc1N` [Compound 123, N-(adamantan-1-ylmethyl)-1-(4-amino-5-methylpyrimidin-2-yl)-3-(trifluoromethyl)-1H-pyrazole-4-carboxamide], the IC50 is no more than 2 µM.
With `Cc1ccc(-n2cc(C(=O)NCC34CC5CC(CC(C5)C3)C4)c(C(F)(F)F)n2)nc1` [Compound 124, N-(adamantan-1-ylmethyl)-1-(5-methylpyridin-2-yl)-3-(trifluoromethyl)-1H-pyrazole-4-carboxamide], the concentration for half-maximal inhibition (IC50) was no more than 2 µM.
As for `Cc1nn(-c2ncc(Br)cn2)cc1C(=O)NCC12CC3CC(CC(C3)C1)C2` [Compound 125, N-(adamantan-1-ylmethyl)-1-(5-bromopyrimidin-2-yl)-3-methyl-1H-pyrazole-4-carboxamide], the half-inhibitory concentration (IC50) was no more than 2 µM.
As for `CC(C)c1nn(-c2ncc(F)c(N)n2)cc1C(=O)NCC12CC3CC(CC(C3)C1)C2` [Compound 126, N-(adamantan-1-ylmethyl)-1-(4-amino-5-fluoropyrimidin-2-yl)-3-isopropyl-1H-pyrazole-4-carboxamide], the half-inhibitory concentration (IC50) was no more than 2 µM.
As for `CC(C)c1nn(-c2ncc(F)cn2)cc1C(=O)NCC12CC3CC(CC(C3)C1)C2` [Compound 127, N-(adamantan-1-ylmethyl)-1-(5-fluoropyrimidin-2-yl)-3-isopropyl-1H-pyrazole-4-carboxamide], the IC50 is no more than 2 µM.
For `Cc1c(N)ncnc1-n1cc(C(=O)NCC23CC4CC(CC(C4)C2)C3)c(C(F)(F)F)n1` [Compound 128, N-(adamantan-1-ylmethyl)-1-(6-amino-5-methylpyrimidin-4-yl)-3-(trifluoromethyl)-1H-pyrazole-4-carboxamide], the IC50 is no more than 2 µM.
The same measure for `O=C(NCC12CC3CC(CC(C3)C1)C2)c1cn(-c2ncccn2)nc1C(F)(F)F` [Compound 129, N-(adamantan-1-ylmethyl)-1-pyrimidin-2-yl-3-(trifluoromethyl)-1H-pyrazole-4-carboxamide]: no more than 2 µM; for `Nc1ccnc(-n2cc(C(=O)NCC34CC5CC(CC(C5)C3)C4)c(C(F)(F)F)n2)n1` [Compound 130, N-(adamantan-1-ylmethyl)-1-(4-aminopyrimidin-2-yl)-3-(trifluoromethyl)-1H-pyrazole-4-carboxamide]: no more than 2 µM; for `Nc1cccnc1-n1cc(C(=O)NCC23CC4CC(CC(C4)C2)C3)c(C(F)(F)F)n1` [Compound 131, N-(adamantan-1-ylmethyl)-1-(3-aminopyridin-2-yl)-3-(trifluoromethyl)-1H-pyrazole-4-carboxamide]: no more than 2 µM.
Take `Cc1cccnc1-n1cc(C(=O)NCC23CC4CC(CC(C4)C2)C3)c(C(F)(F)F)n1` [Compound 132, N-(adamantan-1-ylmethyl)-1-(3-methylpyridin-2-yl)-3-(trifluoromethyl)-1H-pyrazole-4-carboxamide]: the IC50 is no more than 2 µM.
As for `CC(C)c1nn(-c2nccs2)cc1C(=O)NCC12CC3CC(CC(C3)C1)C2` [Compound 133, N-(adamantan-1-ylmethyl)-3-isopropyl-1-(1,3-thiazol-2-yl)-1H-pyrazole-4-carboxamide], the IC50 was no more than 2 µM.
`O=C(NCC12CC3CC(CC(C3)C1)C2)c1c[nH]nc1C(F)(F)F` [Compound 134, N-(adamantan-1-ylmethyl)-3-(trifluoromethyl)-1H-pyrazole-4-carboxamide]: the IC50 was no more than 2 µM.
Consider `O=C(NCC12CC3CC(CC(C3)C1)C2)c1cn(-c2nccs2)nc1C(F)(F)F` [Compound 135, N-(adamantan-1-ylmethyl)-1-(1,3-thiazol-2-yl)-3-(trifluoromethyl)-1H-pyrazole-4-carboxamide], for which the concentration for half-maximal inhibition (IC50) was no more than 2 µM.
On to `O=C(NCC12CC3CC(CC(C3)C1)C2)c1cn(-c2cnccn2)nc1C(F)(F)F` [Compound 136, N-(adamantan-1-ylmethyl)-1-pyrazin-2-yl-3-(trifluoromethyl)-1H-pyrazole-4-carboxamide], for which the IC50 is no more than 2 µM.
With `Nc1cncc(-n2cc(C(=O)NCC34CC5CC(CC(C5)C3)C4)c(C(F)(F)F)n2)n1` [Compound 137, N-(adamantan-1-ylmethyl)-1-(6-aminopyrazin-2-yl)-3-(trifluoromethyl)-1H-pyrazole-4-carboxamide] the figure was no more than 2 µM.
Consider `Cc1ccc(C2(CNC(=O)c3cn(-c4ncc(F)c(N)n4)nc3C(F)(F)F)CCCCC2)cn1` [Compound 138, 1-(4-amino-5-fluoropyrimidin-2-yl)-N-{[1-(6-methylpyridin-3-yl)cyclohexyl]methyl}-3-(trifluoromethyl)-1H-pyrazole-4-carboxamide], for which the IC50 is no more than 2 µM.
